The test system of assay [1] is full-thickness skin defect wound surfaces. The experiment in a line: Effect of Hst1-MAD cyclic peptide on wound repair in mice (Example 22): healing rate, histology, immunohistochemistry, immunofluorescence double staining, Western Blot. Format: in vivo, C57 BL/6 mice. On the procedure:
[…]. 36 healthy male special pathogen-free grade C57 BL/6 mice (purchased from Guangdong Experimental Animal Center) of 6-8 weeks old and weighing 22-28 g. They were intraperitoneally injected with 5 ml/kg of 1% pentobarbital sodium for anesthesia. After the mice had no corneal reflex, the hair on their backs was carefully removed and disinfected with alcohol. […] full-thickness skin defect wound surfaces were prepared on the back of each mouse by using a circular skin punch. […]. Each wound surface was added with 0.5 ml of four drugs respectively, and administration was conducted every day until the wound surfaces of the experimental groups healed. Photographs were taken on days 0, 3, 5, and 10 after surgery, and wound tissues were sampled on days 3, 5, and 10 for subsequent pathological staining.
was observed and photographed with a digital camera (see FIG. 19), and the wound healing rate was calculated (see FIG. 20). Wound healing rate=(wound area immediately after injury−unhealed wound area at each time point)÷wound area immediately after injury×100%.
The wound specimens were fixed in 4% paraformaldehyde for 48 hours, rinsed with tap water for 10 minutes, dehydrated with graded ethanol, permeabilized with xylene, and embedded in paraffin to prepare 4 μm thick sections. Some sections were taken and subjected to HE staining to detect an epidermal thickness and subjected to Masson staining to detect newly grown collagen. Through hematoxylin-cosin staining (HE), the effects of the four groups of drugs on newly grown epidermal at the wound surface on day 10 were evaluated (FIGS. 21 and 22). Through Masson staining, the effects of the four groups of drugs on newly grown collagen at the wound surface on days 5 and 10 were evaluated (FIGS. 23 and 24). 5 sections were taken from each mouse, and 5 fields of view were selected for each section. Data analysis was performed using the software Image-pro Plus.
and rehydrated, subjected to antigen thermal repair with a 0.1 mol/L citric acid buffer (with a pH value of 6.0) for 20 minutes, treated with hydrogen peroxide with a volume fraction of 10% for inactivation of endogenous peroxidase for 10 minutes, and blocked with 50 g/L of bovine serum albumin for 2 hours. It was added with a rabbit anti-mouse CD31 primary antibody (with a dilution ratio of 1:300) and a mouse anti-VEGF (with a dilution ratio of 1:100), incubated overnight at 4° C., and washed with PBS. It was rewarmed for 1 hour, washed with PBS, added dropwise with ready-to-use biotinylated goat anti-mouse and goat anti-rabbit IgG secondary antibodies, incubated for 2 hours, and washed with PBS. It was subjected to DAB development, hematoxylin counterstaining. gradient ethanol dehydration, xylene permeabilization, and resin blocking. 5 sections were taken from each mouse, and 5 fields of view were selected for each section. The sections were observed under a 400× inverted fluorescence microscope, and analyzed for the number of CD31-positive blood vessels (see FIG. 25) and VEGF expression amounts (see FIG. 26) by using Image-pro Plus software.
The specific steps were: the previous steps were the same as those of 1.3.3, and they were incubated with the antibodies MHCII (orb101661; 1:500; Biorbyt Biotechnology Co., Ltd., Wuhan, CN), CD11c (97585; 1:200; Cell Signaling Technology Inc., Boston, MA), CD68 (GB11067; 1:300; Servicebio Inc.), CD80 (GB11034; 1:300; Servicebio Inc.), CD206 (GB11062; 1:500; Servicebio Inc.), claudin1 (37-4900; 1:100; Thermo Fisher Scientific Co., Ltd, Shanghai, CN) and claudin2 (32-5600; 1:200; Thermo Fisher Scientific Co., Ltd.) at 4° C. overnight. The fluorescent-labeled secondary antibodies were incubated at room temperature for 1 h, followed by 4′,6-diamidino-2′-phenylindole (DAPI) (G1012; Google Biotechnology Co., Ltd., Wuhan, CN). The stained sections were photographed by using a fluorescence microscope (Nikon Eclipse TI-SR. Tokyo, Japan). […]
A general note: Immunoblotting shows a protein as a band on a membrane.

For assay [2], the system named is fibroblasts (NIH/3T3). The experiment in a line: Scratch experiment, Hst1-MAD cyclic peptides (Example 23). In kind it is cell-based. As to conditions: dose required to achieve the same pharmaceutical effect in the scratch experiment. From the text: In this example, the propargylglycine-Hst1-MAD cyclic peptide, the homopropargylglycine-Hst1-MAD cyclic peptide, the dihomopropargylglycine-Hst1-MAD cyclic peptide and the linear Hst1 prepared in Examples 13, 14, and 15, and the Hst1-MAD head-to-tail cyclic peptide or N-terminal and C-terminal cyclized peptide prepared by the amide bond cyclization method provided by the literature of for example Sortase A as a tool for high-yield histatin cyclization, Jan G. M. Bolscher, The FASEB Journal. Research Communication, were adopted respectively, the reaction time was recorded, the yield of the reaction product was detected by HPLC, the proportion of side reactions in the reaction product was calculated, and activity comparison was performed. The activity comparison method was to calculate the dose required to achieve the same pharmaceutical effect through a scratch experiment. […] After 12 hours and 24 hours of culture, the scratched area of each group was calculated by using imageJ (Rawak Software, Inc. Germany) software, and the scratch area at 0 hour was an initial scratch area. The scratch healing rate was calculated in the following manner: W % (scratch healing rate)=(W0−Wt)/W0×100%, where W0=an initial scratch area, and Wt=a remaining scratch area; and the results were as shown in Table 14.

Where [3] appears, read: day 3 after surgery, Western Blot, 10 μM Histatin1.
Setting [4] is: day 10, immunofluorescence, 1 μM Click-Hst1-MAD, 1 μM Hst1-MAD, 10 μM Histatin1.

Take “Linear Hst1: linear peptide Hst1 (Histatin1), amino acid sequence SEQ ID NO.1”: the “number of M2 macrophages (CD68+ and CD206+)” value in assay [1] (day 3, 1 μM Click-Hst1-MAD, 10 μM Hst1, M±SD) worked out at 12.67±7.34. In assay [1] (setting [3]), the “expression level of HO-1 relative to the control group” value turned out to be 1.80 times and the “expression level of Nrf2 relative to the control group” value was determined as 1.27 times. The “expression level of NQO1 relative to the control group” value in assay [1] (day 3 after surgery, Western Blot, 10 μM Hst1) is 2.08 times. The “number of dendritic cells (MHCII+ and CD11c+) relative to the control group” value in assay [1] (day 3 after surgery, 10 μM Hst1, 1 μM Click-Hst1-MAD) worked out at 1.75 times. In assay [1] (day 5, 1 μM Click-Hst1-MAD, 10 μM Histatin1, 1 μM Hst1-MAD compared with each other), the VEGF expression amount entry is on record as “comparable”. In addition, in assay [1] (day 5, 1 μM Hst1-MAD and 10 μM Histatin1 compared with each other), the “expression levels of the dermal collagen” value is on record as “equivalent”. Besides, in assay [1] (setting [4]), the Claudin1 expression intensity entry is “equivalent expression level of Claudin1” and the Claudin2 expression intensity result is reported as “no obvious effect on promoting Claudin2 expression”. Also, in assay [1] (day 10, 1 μM Click-Hst1-MAD, 10 μM Histatin1), the VEGF expression amount result was “higher”. Also, in assay [1] (days 3 and 5 evaluated, 1 μM Click-Hst1-MAD, 1 μM Hst1-MAD, 10 μM Histatin1), the “number of dendritic cells (MHCII+ and CD11c+)” value was “significantly higher than that in the Control group”. The “number of M1 macrophages (CD68+ and CD80+)” value in assay [1] (days 3 and 5 evaluated, 1 μM Hst1-MAD, 10 μM Histatin1) was “lower than that in the Control group”. For the same substance, the “number of CD31-positive blood vessels” value in assay [1] (days 5 and 10, immunohistochemistry, 1 μM Click-Hst1-MAD, 1 μM Hst1-MAD, 10 μM Histatin1) is reported as “significantly higher than that in the Control group”. Further, the “Dosage of agents required for scratch test” value in assay [2] is 10 µM.

Source of the values: US20240336658A1, “CYCLIC PEPTIDE AND PREPARATION METHOD AND USE THEREOF” (HANGZHOU HUIBO SCIENCE AND TECHNOLOGY CO., LTD, priority 2021, published 2024).
